Reference: article PMC7523345 (Investigational new drugs, 2018)

Assay: Phase I dose escalation study: safety, tolerability, DLT and MTD
Assay type: in vivo

Cc1cccc2c1NC(=O)[C@@H](NC(=O)[C@H](CCC(F)(F)F)[C@H](CCC(F)(F)F)C(N)=O)N=C2c1cccc(F)c1 [BMS-986115]
1 (3) n (%): Abdominal pain (drug related AE, Grade 3 and 4) (All patients (N = 36)) | Colitis (drug related AE, Grade 3 and 4) (All patients (N = 36)) | Cough (drug related AE, Grade 3 and 4) (All patients (N = 36)) | Decreased Appetite (drug related AE, Grade 3 and 4) (All patients (N = 36)) | Dehydration (drug related AE, Grade 3 and 4) (All patients (N = 36)) | Fatigue (drug related AE, Grade 3 and 4) (All patients (N = 36)) | Hypocalcaemia (drug related AE, Grade 3 and 4) (All patients (N = 36)) | Ileus (drug related AE, Grade 3 and 4) (All patients (N = 36)) | Leucocytosis (drug related AE, Grade 3 and 4) (All patients (N = 36)) | Pruritus (drug related AE, Grade 3 and 4) (All patients (N = 36)) | Pulmonary embolism (drug related AE, Grade 3 and 4) (All patients (N = 36)) | Urticaria (drug related AE, Grade 3 and 4) (All patients (N = 36)) | Vomiting (drug related AE, Grade 3 and 4) (All patients (N = 36))
6 subjects: Subjects with treatment-related SAEs (Arm A QD)
10 (28) n (%): Hypokalaemia (drug related AE, all grades) (All patients (N = 36))
11 (31) n (%): Rash (drug related AE, all grades) (All patients (N = 36))
22 (61) n (%): Nausea (drug related AE, all grades) (All patients (N = 36))
14 (39) n (%): Hypophosphataemia (drug related AE, Grade 3 and 4) (All patients (N = 36))
0 n (%): Abdominal distension (drug related AE, all grades) (Arm A QD 0.3 mg (N = 2)) | Abdominal pain (drug related AE, Grade 3 and 4) (Arm A QD 0.3 mg (N = 2)) | Abdominal pain (drug related AE, all grades) (Arm A QD 0.3 mg (N = 2)) | Blood creatinine increased (drug related AE, all grades) (Arm A QD 0.3 mg (N = 2)) | Colitis (drug related AE, Grade 3 and 4) (Arm A QD 0.3 mg (N = 2)) | Cough (drug related AE, Grade 3 and 4) (Arm A QD 0.3 mg (N = 2)) | Cough (drug related AE, all grades) (Arm A QD 0.3 mg (N = 2)) | Decreased Appetite (drug related AE, Grade 3 and 4) (Arm A QD 0.3 mg (N = 2)) | Decreased Appetite (drug related AE, all grades) (Arm A QD 0.3 mg (N = 2)) | Dehydration (drug related AE, Grade 3 and 4) (Arm A QD 0.3 mg (N = 2)) | Dehydration (drug related AE, all grades) (Arm A QD 0.3 mg (N = 2)) | Dermatitis acneiform (drug related AE, all grades) (Arm A QD 0.3 mg (N = 2)) | Diarrhoea (drug related AE, Grade 3 and 4) (Arm A QD 0.3 mg (N = 2)) | Diarrhoea (drug related AE, all grades) (Arm A QD 0.3 mg (N = 2)) | Dry mouth (drug related AE, all grades) (Arm A QD 0.3 mg (N = 2)) | Dry skin (drug related AE, all grades) (Arm A QD 0.3 mg (N = 2)) | Dysgeusia (drug related AE, all grades) (Arm A QD 0.3 mg (N = 2)) | Dyspepsia (drug related AE, all grades) (Arm A QD 0.3 mg (N = 2)) | Dysphonia (drug related AE, all grades) (Arm A QD 0.3 mg (N = 2))
4 (11) n (%): Cough (drug related AE, all grades) (All patients (N = 36)) | Dermatitis acneiform (drug related AE, all grades) (All patients (N = 36)) | Hypokalaemia (drug related AE, Grade 3 and 4) (All patients (N = 36)) | Nausea (drug related AE, Grade 3 and 4) (All patients (N = 36))
13 (36) n (%): Decreased Appetite (drug related AE, all grades) (All patients (N = 36))
7 (19) n (%): Diarrhoea (drug related AE, Grade 3 and 4) (All patients (N = 36))
9 (25) n (%): Pruritus (drug related AE, all grades) (All patients (N = 36))
16 (44) n (%): Fatigue (drug related AE, all grades) (All patients (N = 36)) | Vomiting (drug related AE, all grades) (All patients (N = 36))
5 (14) n (%): Dehydration (drug related AE, all grades) (All patients (N = 36)) | Dry skin (drug related AE, all grades) (All patients (N = 36)) | Dysgeusia (drug related AE, all grades) (All patients (N = 36)) | Dysphonia (drug related AE, all grades) (All patients (N = 36)) | Rash maculopapular (drug related AE, all grades) (All patients (N = 36))
≤ 24 h: Time for Gr 3/4 diarrhoea to resolve to Gr 1 (1.5 mg QD, with appropriate medical management)
29%: Gr 3/4 diarrhoea related to the study treatment (1.5 mg QD, 2 of 7 patients)
26 (72) n (%): Diarrhoea (drug related AE, all grades) (All patients (N = 36))
3 (8) n (%): Abdominal pain (drug related AE, all grades) (All patients (N = 36)) | Dry mouth (drug related AE, all grades) (All patients (N = 36)) | Dyspepsia (drug related AE, all grades) (All patients (N = 36)) | Flatulence (drug related AE, all grades) (All patients (N = 36)) | Increased upper airway secretion (drug related AE, all grades) (All patients (N = 36)) | Mouth ulceration (drug related AE, all grades) (All patients (N = 36))
2 (6) n (%): Abdominal distension (drug related AE, all grades) (All patients (N = 36)) | Blood creatinine increased (drug related AE, all grades) (All patients (N = 36)) | Hypocalcaemia (drug related AE, all grades) (All patients (N = 36)) | Hyponatraemia (drug related AE, Grade 3 and 4) (All patients (N = 36)) | Hyponatraemia (drug related AE, all grades) (All patients (N = 36)) | Laryngeal pain (drug related AE, all grades) (All patients (N = 36)) | Sinusitis (drug related AE, all grades) (All patients (N = 36)) | Vision blurred (drug related AE, all grades) (All patients (N = 36)) | Weight decreased (drug related AE, all grades) (All patients (N = 36))
23 (64) n (%): Hypophosphataemia (drug related AE, all grades) (All patients (N = 36))
